Results from patent US20260092071A1, “COMPOUNDS AND COMPOSITIONS AS SMARCA2/4 DEGRADERS AND USES THEREOF” (REGENTS OF THE UNIVERSITY OF MICHIGAN, priority 2022, published 2026).
Where two headings read alike, the source gives them in different places.

What was measured:
SMARCA4 = SMARCA4 (Homo sapiens, UniProt P51532); experiment: HiBiT assay for protein degradation, Hela SMARCA4-HiBiT cells (A series); assay type: cell-based; set-up: fuse HiBiT to the carboxy terminus of SMARCA2 (Promega CS302365) or SMARCA4 (Promega CS3023225); host or cells: HeLa (CRISPR/Cas9 HiBiT knock-in); conditions: for DC50: read-out: SMARC A4 Hela HiBit DC50
In short: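 SMARCA4 degradation was measured in HeLa cells in which HiBiT had been knocked into the SMARCA4 carboxy terminus via CRISPR/Cas9 (Promega CS3023225). Cells were maintained in DMEM with FBS and penicillin-streptomycin. At the end of treatment, SMARCA4 levels were read by lytic HiBiT luminescence (Nano-Glo®, Promega N3050), and data were analyzed with GraphPad Prism.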

SMARCA2 = SMARCA2 (Homo sapiens, UniProt P51531); experiment: HiBiT assay for protein degradation, Hela SMARCA2-HiBiT cells (A series); assay type: cell-based; set-up: Hela cells were genetically modified via CRISPR/Cas9 to fuse HiBiT to the carboxy terminus of SMARCA2; host or cells: HeLa (CRISPR/Cas9 HiBiT knock-in); conditions: for DC50: read-out: SMARC A2 Hela HiBit DC50; for Dmax: read-out: SMARC A2 Hela HiBit Dmax (%);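 for SMARC A2 Hela HiBit Dmax (%): 24 h compound treatment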
In short: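 SMARCA2 degradation was measured in HeLa cells whose endogenous SMARCA2 carries a carboxy-terminal HiBiT tag introduced by CRISPR/Cas9 (Promega CS302365). Cells were maintained in DMEM with FBS and penicillin-streptomycin. SMARCA2 levels were read at the end of the experiment by Nano-Glo® HiBiT lytic luminescence (Promega N3050) and analyzed in GraphPad Prism.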

[1] = Hela SMARCA4-HiBiT cells, 24 hours treatment
[2] = Hela SMARCA2-HiBiT cells, 24 hours treatment
[3] = Hela SMARCA4-HiBiT cells, 24 hours treatment, read-out: SMARC A4 Hela HiBit Dmax

Chain of SMARCA2 (P51531 whole entry): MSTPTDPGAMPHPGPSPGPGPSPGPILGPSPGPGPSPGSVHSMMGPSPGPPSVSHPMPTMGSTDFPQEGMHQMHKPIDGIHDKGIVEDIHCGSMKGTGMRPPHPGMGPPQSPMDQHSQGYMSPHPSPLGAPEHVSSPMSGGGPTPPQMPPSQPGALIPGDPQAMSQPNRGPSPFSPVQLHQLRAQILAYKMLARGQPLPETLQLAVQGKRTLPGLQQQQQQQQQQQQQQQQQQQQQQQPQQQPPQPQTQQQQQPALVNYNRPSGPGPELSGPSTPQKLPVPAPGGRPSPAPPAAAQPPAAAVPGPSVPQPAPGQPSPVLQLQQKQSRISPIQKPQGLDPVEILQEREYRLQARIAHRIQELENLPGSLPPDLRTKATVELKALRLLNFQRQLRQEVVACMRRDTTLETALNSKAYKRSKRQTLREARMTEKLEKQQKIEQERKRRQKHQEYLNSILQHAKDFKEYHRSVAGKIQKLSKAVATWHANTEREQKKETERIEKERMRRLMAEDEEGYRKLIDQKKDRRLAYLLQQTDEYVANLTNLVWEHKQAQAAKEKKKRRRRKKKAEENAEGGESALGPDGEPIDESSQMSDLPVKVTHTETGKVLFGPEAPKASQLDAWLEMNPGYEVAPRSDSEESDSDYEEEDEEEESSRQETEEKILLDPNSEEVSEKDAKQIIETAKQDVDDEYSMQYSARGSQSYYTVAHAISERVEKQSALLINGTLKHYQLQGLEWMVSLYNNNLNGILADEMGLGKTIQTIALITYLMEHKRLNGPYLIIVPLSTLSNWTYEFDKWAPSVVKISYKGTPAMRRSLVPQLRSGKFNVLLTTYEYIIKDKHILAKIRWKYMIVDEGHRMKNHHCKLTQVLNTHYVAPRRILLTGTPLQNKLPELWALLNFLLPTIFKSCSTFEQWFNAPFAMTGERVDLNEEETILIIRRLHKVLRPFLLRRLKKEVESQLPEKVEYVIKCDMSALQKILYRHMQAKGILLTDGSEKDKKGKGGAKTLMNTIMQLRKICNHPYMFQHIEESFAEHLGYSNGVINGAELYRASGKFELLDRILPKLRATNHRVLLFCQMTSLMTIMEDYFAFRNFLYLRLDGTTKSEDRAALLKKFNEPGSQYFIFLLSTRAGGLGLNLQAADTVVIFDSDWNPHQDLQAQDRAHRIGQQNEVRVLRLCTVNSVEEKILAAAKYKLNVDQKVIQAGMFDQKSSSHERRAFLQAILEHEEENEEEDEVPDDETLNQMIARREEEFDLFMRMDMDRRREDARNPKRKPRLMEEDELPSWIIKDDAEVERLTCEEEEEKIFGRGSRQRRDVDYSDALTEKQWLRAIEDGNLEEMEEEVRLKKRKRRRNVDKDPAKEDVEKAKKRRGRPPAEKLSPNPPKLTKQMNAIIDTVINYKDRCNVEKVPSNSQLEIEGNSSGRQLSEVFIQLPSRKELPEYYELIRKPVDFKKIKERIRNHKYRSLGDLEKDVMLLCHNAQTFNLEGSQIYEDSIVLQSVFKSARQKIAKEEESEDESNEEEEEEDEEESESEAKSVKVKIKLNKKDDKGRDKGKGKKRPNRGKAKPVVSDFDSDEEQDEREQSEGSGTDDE
Chain of SMARCA4 (P51532 whole entry): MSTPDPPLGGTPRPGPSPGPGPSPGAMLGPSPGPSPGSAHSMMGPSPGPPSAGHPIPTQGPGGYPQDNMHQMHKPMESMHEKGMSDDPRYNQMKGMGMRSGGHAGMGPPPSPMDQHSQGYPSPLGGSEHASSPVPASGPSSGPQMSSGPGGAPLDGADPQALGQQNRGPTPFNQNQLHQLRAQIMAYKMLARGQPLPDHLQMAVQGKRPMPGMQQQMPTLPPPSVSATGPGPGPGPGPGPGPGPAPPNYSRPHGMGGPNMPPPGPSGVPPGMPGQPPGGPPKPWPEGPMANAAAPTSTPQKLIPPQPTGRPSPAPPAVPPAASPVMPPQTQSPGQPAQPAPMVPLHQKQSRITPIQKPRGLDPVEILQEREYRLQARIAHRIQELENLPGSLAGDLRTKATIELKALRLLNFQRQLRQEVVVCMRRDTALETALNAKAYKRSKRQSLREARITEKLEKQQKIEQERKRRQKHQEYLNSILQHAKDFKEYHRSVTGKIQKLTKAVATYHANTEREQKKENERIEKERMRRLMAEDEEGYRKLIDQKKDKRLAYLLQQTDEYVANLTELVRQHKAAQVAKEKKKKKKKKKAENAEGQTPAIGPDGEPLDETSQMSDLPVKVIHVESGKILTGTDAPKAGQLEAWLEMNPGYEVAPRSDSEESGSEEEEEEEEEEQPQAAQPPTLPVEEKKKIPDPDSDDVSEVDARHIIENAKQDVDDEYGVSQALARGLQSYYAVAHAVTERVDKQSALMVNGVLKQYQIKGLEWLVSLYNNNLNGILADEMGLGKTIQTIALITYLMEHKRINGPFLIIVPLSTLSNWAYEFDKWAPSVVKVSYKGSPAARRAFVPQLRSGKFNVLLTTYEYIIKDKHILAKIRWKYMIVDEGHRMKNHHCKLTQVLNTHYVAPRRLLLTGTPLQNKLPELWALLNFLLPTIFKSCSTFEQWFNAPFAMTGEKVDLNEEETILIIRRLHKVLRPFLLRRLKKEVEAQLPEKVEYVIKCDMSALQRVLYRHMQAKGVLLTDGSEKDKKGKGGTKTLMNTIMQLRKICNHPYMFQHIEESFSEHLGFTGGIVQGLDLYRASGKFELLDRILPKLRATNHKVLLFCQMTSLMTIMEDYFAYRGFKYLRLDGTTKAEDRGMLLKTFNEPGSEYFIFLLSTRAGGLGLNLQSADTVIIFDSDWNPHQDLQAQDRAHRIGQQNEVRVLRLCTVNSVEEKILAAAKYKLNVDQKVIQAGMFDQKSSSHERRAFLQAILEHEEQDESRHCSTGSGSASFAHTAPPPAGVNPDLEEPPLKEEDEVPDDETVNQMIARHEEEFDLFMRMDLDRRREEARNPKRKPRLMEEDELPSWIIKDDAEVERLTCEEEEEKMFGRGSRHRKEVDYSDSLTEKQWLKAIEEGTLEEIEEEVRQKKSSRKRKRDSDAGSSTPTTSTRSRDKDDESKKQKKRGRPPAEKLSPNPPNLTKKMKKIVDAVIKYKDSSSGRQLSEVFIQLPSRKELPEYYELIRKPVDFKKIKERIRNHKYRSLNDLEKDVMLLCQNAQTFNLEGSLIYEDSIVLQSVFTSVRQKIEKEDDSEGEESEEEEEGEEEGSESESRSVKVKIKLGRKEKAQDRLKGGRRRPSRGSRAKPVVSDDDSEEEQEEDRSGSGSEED

SMILES	SMARC A4 Hela HiBit Dmax(%) (SMARCA4; [1])	DC50 (SMARCA4)	SMARC A2 Hela HiBit Dmax (%) (SMARCA2; [2])	DC50 (SMARCA2)	DC50 (SMARCA4; [1])	Dmax (SMARCA4; [3])	DC50 (SMARCA2; [2])	Dmax (SMARCA2; [2])	Dmax (SMARCA2; HeLa)	Dmax (SMARCA4; HeLa, read-out: SMARC A4 Hela HiBit Dmax(%))
Cc1ncsc1-c1ccc([C@H](C)NC(=O)[C@@H]2C[C@@H](O)CN2C(=O)[C@@H](n2cc([C@H]3C[C@H](CN4CCC(c5ccc6c(c5)-n5c(nc(=O)c7c(Br)cccc75)C65CCCCC5)CC4)C3)nn2)C(C)(C)C)cc1 [Compound A63, (2S,4R)-1-((S)-2-(4-((1r,3S)-3-((4-(4′-bromo-5′-oxo-5′H-spiro[cyclohexane-1,7′-indolo[1,2-a]quinazolin]-10′-yl)piperidin-1-yl)methyl)cyclobutyl)-1H-1,2,3-triazol-1-yl)-3,3-dimethylbutanoyl)-4-hydroxy-N—((S)-1-(4-(4-methylthiazol-5-yl)phenyl)ethyl)pyrrolidine-2-carboxamide]	B (B (70-90% degradation))	< 100 nM	A (A (>90% degradation))	< 100 nM						
Cc1nc(C)c(-c2ccc([C@H](CN3CCOCC3)NC(=O)[C@@H]3C[C@@H](O)CN3C(=O)[C@@H](n3cc([C@H]4CC[C@H](CN5CCC(c6ccc7c(c6)-n6c(nc(=O)c8c(Cl)cccc86)C76CCCCC6)CC5)CC4)nn3)C(C)(C)C)cc2)s1 [Compound A161, (2S,4R)-1-((S)-2-(4-((1r,4S)-4-((4-(4′-chloro-5′-oxo-5′H-spiro[cyclohexane-1,7′-indolo[1,2-a]quinazolin]-10′-yl)piperidin-1-yl)methyl)cyclohexyl)-1H-1,2,3-triazol-1-yl)-3,3-dimethylbutanoyl)-N—((R)-1-(4-(2,4-dimethylthiazol-5-yl)phenyl)-2-morpholinoethyl)-4-hydroxypyrrolidine-2-carboxamide]					100 to 1000 nM	50 to 69%	< 10 nM	> 90%		
C[C@H](NC(=O)[C@@H]1C[C@@H](O)CN1C(=O)[C@@H](n1cc([C@H]2CC[C@H](CN3CCC(c4ccc5c(c4)-n4c(nc(=O)c6c(Br)cccc64)C54CCCCC4)CC3)CC2)nn1)C(C)(C)C)c1ccc(Cl)cc1 [Compound A68, (2S,4R)-1-((S)-2-(4-((1r,4S)-4-((4-(4′-bromo-5′-oxo-5′H-spiro[cyclohexane-1,7′-indolo[1,2-a]quinazolin]-10′-yl)piperidin-1-yl)methyl)cyclohexyl)-1H-1,2,3-triazol-1-yl)-3,3-dimethylbutanoyl)-N—((S)-1-(4-chlorophenyl)ethyl)-4-hydroxypyrrolidine-2-carboxamide]					> 1000 nM		< 100 nM		> 90%	
Cc1ncsc1-c1ccc([C@H](CN2CC(C(=O)O)C2)NC(=O)[C@@H]2C[C@@H](O)CN2C(=O)[C@@H](n2cc([C@H]3CC[C@H](CN4CCC(c5ccc6c(c5)-n5c(nc(=O)c7c(Cl)cccc75)C65CCCCC5)CC4)CC3)nn2)C(C)(C)C)cc1 [Compound A157, 1-((R)-2-((2S,4R)-1-((S)-2-(4-((1r,4S)-4-((4-(4′-chloro-5′-oxo-5′H-spiro[cyclohexane-1,7′-indolo[1,2-a]quinazolin]-10′-yl)piperidin-1-yl)methyl)cyclohexyl)-1H-1,2,3-triazol-1-yl)-3,3-dimethylbutanoyl)-4-hydroxypyrrolidine-2-carboxamido)-2-(4-(4-methylthiazol-5-yl)phenyl)ethyl) azetidine-3-carboxylic acid]					> 1000 nM	< 50%	100 to 1000 nM	70 to 90%		
Cc1ncsc1-c1ccc([C@H](C)NC(=O)[C@@H]2C[C@@H](O)CN2C(=O)[C@@H](NC(=O)CN2CCC(c3ccc4c(c3)-n3c(nc(=O)c5c(Br)cccc53)C43CCCCC3)CC2)C(C)(C)C)cc1 [Compound A40, (2S,4R)-1-((S)-2-(2-(4-(4′-bromo-5′-oxo-5′H-spiro[cyclohexane-1,7′-indolo[1,2-a]quinazolin]-10′-yl)piperidin-1-yl)acetamido)-3,3-dimethylbutanoyl)-4-hydroxy-N—((S)-1-(4-(4-methylthiazol-5-yl)phenyl)ethyl)pyrrolidine-2-carboxamide]		< 100 nM		< 100 nM					> 90%	> 90%
Cc1ncsc1-c1ccc([C@H](CN2CCC(F)(F)CC2)NC(=O)[C@@H]2C[C@@H](O)CN2C(=O)[C@@H](n2cc([C@H]3CC[C@H](CN4CCC(c5ccc6c(c5)-n5c(nc(=O)c7c(Cl)cccc75)C6(C)C)CC4)CC3)nn2)C(C)(C)C)cc1 [Compound A94, (2S,4R)-1-((S)-2-(4-((1r,4S)-4-((4-(4-chloro-7,7-dimethyl-5-oxo-5,7-dihydroindolo[1,2-a]quinazolin-10-yl)piperidin-1-yl)methyl)cyclohexyl)-1H-1,2,3-triazol-1-yl)-3,3-dimethylbutanoyl)-N—((R)-2-(4,4-difluoropiperidin-1-yl)-1-(4-(4-methylthiazol-5-yl)phenyl)ethyl)-4-hydroxypyrrolidine-2-carboxamide]					> 1000 nM	< 50%	< 10 nM	> 90%		
Cc1ncsc1-c1ccc([C@H](C)NC(=O)[C@@H]2C[C@@H](O)CN2C(=O)[C@@H](n2cc(CCCCN3CCC(c4ccc5c(c4)-n4c(nc(=O)c6c(Br)cccc64)C54CCCCC4)CC3)nn2)C(C)(C)C)cc1 [Compound A45, (2S,4R)-1-((S)-2-(4-(4-(4-(4′-bromo-5′-oxo-5′H-spiro[cyclohexane-1,7′-indolo[1,2-a]quinazolin]-10′-yl)piperidin-1-yl)butyl)-1H-1,2,3-triazol-1-yl)-3,3-dimethylbutanoyl)-4-hydroxy-N—((S)-1-(4-(4-methylthiazol-5-yl)phenyl)ethyl)pyrrolidine-2-carboxamide]	B (B (70-90% degradation))	< 100 nM	A (A (>90% degradation))	< 100 nM						
CC(C)(C)[C@H](NC(=O)C1(F)CC1)C(=O)N1C[C@H](O)C[C@H]1C(=O)N[C@@H](CCCCCN1CCC(c2ccc3c(c2)-n2c(nc(=O)c4c(Br)cccc42)C32CCCCC2)CC1)c1ccc(Cl)cc1 [Compound A26, (2S,4R)—N—((S)-6-(4-(4′-bromo-5′-oxo-5′H-spiro[cyclohexane-1,7′-indolo[1,2-a]quinazolin]-10′-yl)piperidin-1-yl)-1-(4-chlorophenyl)hexyl)-1-((S)-2-(1-fluorocyclopropane-1-carboxamido)-3,3-dimethylbutanoyl)-4-hydroxypyrrolidine-2-carboxamide]	D (D (<50% degradation))	> 1000 nM	D (D (<50% degradation))	> 1000 nM						
Cc1ncsc1-c1ccc([C@H](C)NC(=O)[C@@H]2C[C@@H](O)CN2C(=O)[C@H](C2CCNCC2)n2cc([C@H]3CC[C@H](CN4CCC(c5ccc6c(c5)-n5c(nc(=O)c7c(Cl)cccc75)C65CCCCC5)CC4)CC3)nn2)cc1 [Compound A109, (2S,4R)-1-((S)-2-(4-((1r,4S)-4-((4-(4′-chloro-5′-oxo-5′H-spiro[cyclohexane-1,7′-indolo[1,2-a]quinazolin]-10′-yl)piperidin-1-yl)methyl)cyclohexyl)-1H-1,2,3-triazol-1-yl)-2-(piperidin-4-yl)acetyl)-4-hydroxy-N—((S)-1-(4-(4-methylthiazol-5-yl)phenyl)ethyl)pyrrolidine-2-carboxamide]					> 1000 nM	50 to 69%	100 to 1000 nM	70 to 90%		
Cc1ncsc1-c1ccc([C@H](CO)NC(=O)[C@@H]2C[C@@H](O)CN2C(=O)[C@H](C2CCCCC2)n2cc(-c3ccc(CN4CCC(c5ccc6c(c5)-n5c(nc(=O)c7c(Br)cccc75)C65CCCCC5)CC4)cc3)nn2)cc1 [Compound A129]					> 1000 nM	< 50%	100 to 1000 nM	50 to 69%		
